Laboratory results taken from patent publication US20250101023A1, “HETEROARYL DERIVATIVE AND USES THEREOF” (IUCF-HYU (INDUSTRY-UNIVERSITY COOPERATION FOUNDATION …, priority 2022, published 2025).

Assays:
[1] = tested on: HCC1954 cells; test: Breast cancer growth inhibitory activity (Cell-titer Glo, 72 h); type: cell-based; conditions: Homo sapiens, read-out: HCC1954 GI50
How it was run: (§1)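 Cells seeded at 2,500 (SK-Br3) or 1,000 (HCC1954) per well and grown 24 h before treatment. Viability read by Cell-titer Glo luminescence; IC50 from titration curve fitting.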

[2] = tested on: SK-Br3 cells; test: as above; type: cell-based; conditions: Homo sapiens, SK-BR-3; read-out: SK-Br3 GI50
How it was run: as §1

[3] = target: CYP1A2 (Homo sapiens (Human), UniProt P05177); test: in vitro; type: in vitro ADME
Method: 5 derivatives were evaluated for in vitro metabolic stability in liver microsomes from three different species (human, dog, mouse) and for inhibitory activity against 5 representative cytochrome P450 enzymes (CYPs)(Table 3). In terms of liver microsomal stability, the 2′-pyridyl group is more suitable than the α-methyl-4′-pyridyl group as the terminal aromatic group at position 6, and the aminopyrimidyl group is better than the aminopyridyl group as a substituent at position 2.

[4] = target: CDK2/cyclin O (Homo sapiens (Human), UniProt P24941); test: Kinome-wide profiling; type: biochemical; conditions: read-out: % Residual Activity (mean)
[5] = target: CDK2/cyclin A (Homo sapiens (Human), UniProt P24941); test: Kinome-wide profiling; type: biochemical; conditions: read-out: % Residual Activity (mean)
[6] = target: CDK5/P25 (Homo sapiens (Human), UniProt Q00535); test: Kinome-wide profiling; type: biochemical; conditions: read-out: % Residual Activity (mean)
Sequence of CDK5/P25 (Q00535 whole entry): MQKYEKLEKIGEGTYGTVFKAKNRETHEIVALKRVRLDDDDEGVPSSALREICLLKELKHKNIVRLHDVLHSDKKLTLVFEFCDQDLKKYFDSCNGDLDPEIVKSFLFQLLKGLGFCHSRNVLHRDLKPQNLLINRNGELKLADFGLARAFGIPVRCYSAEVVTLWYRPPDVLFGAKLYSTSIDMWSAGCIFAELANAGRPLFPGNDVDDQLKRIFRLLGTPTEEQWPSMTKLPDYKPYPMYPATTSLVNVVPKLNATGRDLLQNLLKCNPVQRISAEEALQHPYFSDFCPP
Sequence of CDK5/P25 (Q15078 99-307 partner): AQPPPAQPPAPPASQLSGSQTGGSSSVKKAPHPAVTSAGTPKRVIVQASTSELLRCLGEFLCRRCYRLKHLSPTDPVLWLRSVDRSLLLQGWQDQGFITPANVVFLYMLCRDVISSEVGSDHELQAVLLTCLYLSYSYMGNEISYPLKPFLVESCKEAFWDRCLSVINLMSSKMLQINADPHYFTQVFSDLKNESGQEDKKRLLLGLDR

[7] = target: CDK18/cyclin Y (PCTK3) (Homo sapiens (Human), UniProt Q07002); test: Kinome-wide profiling; type: biochemical; conditions: read-out: % Residual Activity (mean)
Sequence of CDK18/cyclin Y (PCTK3) (Q07002 whole entry): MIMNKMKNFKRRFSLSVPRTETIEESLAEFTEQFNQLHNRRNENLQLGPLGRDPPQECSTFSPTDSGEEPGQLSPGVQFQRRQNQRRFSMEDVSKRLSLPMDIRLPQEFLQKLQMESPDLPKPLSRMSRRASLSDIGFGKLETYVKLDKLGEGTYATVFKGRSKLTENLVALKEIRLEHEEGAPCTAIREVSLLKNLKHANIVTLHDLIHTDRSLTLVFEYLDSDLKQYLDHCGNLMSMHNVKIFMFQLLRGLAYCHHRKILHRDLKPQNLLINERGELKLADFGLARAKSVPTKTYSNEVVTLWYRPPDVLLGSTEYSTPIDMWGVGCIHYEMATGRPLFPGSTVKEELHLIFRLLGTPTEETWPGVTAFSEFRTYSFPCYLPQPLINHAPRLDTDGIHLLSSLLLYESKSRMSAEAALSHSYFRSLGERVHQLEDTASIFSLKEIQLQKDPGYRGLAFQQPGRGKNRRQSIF
Sequence of CDK18/cyclin Y (PCTK3) (Q8ND76 whole entry partner): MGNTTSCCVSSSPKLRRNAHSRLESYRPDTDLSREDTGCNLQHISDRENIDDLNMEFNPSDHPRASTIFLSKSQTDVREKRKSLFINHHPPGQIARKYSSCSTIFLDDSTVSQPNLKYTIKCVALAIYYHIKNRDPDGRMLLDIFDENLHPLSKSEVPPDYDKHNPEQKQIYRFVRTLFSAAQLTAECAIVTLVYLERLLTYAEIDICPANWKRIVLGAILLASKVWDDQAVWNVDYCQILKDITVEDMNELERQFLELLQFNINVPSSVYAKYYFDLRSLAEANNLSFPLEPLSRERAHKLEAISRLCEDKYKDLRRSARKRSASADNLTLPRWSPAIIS

[8] = target: EPHB2 (Homo sapiens (Human), UniProt P29323); test: Kinome-wide profiling; type: biochemical; conditions: read-out: % Residual Activity (mean)
[9] = target: DYRK1/DYRKIA (Homo sapiens (Human), UniProt Q13627); test: Kinome-wide profiling; type: biochemical; conditions: read-out: % Residual Activity (mean)
[10] = target: CHK2 (Homo sapiens (Human), UniProt O96017); test: Kinome-wide profiling; type: biochemical; conditions: read-out: % Residual Activity (mean)
[11] = target: CDK1/cyclin E (Homo sapiens (Human), UniProt P06493); test: Kinome-wide profiling; type: biochemical; conditions: read-out: % Residual Activity (mean)
[12] = target: PAK5 (Homo sapiens (Human), UniProt Q9P286); test: Kinome-wide profiling; type: biochemical; conditions: read-out: % Residual Activity (mean)
[13] = target: ACK1 (Homo sapiens (Human), UniProt Q07912); test: Kinome-wide profiling; type: biochemical; conditions: read-out: % Residual Activity (mean)
[14] = target: CLK1 (Homo sapiens (Human), UniProt P49759); test: Kinome-wide profiling; type: biochemical; conditions: read-out: % Residual Activity (mean)
[15] = target: c-Kit (Homo sapiens (Human), UniProt P10721); test: Kinome-wide profiling; type: biochemical; conditions: read-out: % Residual Activity (mean)
[16] = target: CK1g3 (Homo sapiens (Human), UniProt Q9Y6M4); test: Kinome-wide profiling; type: biochemical; conditions: read-out: % Residual Activity (mean)
Sequence of CK1g3 (Q9Y6M4 whole entry): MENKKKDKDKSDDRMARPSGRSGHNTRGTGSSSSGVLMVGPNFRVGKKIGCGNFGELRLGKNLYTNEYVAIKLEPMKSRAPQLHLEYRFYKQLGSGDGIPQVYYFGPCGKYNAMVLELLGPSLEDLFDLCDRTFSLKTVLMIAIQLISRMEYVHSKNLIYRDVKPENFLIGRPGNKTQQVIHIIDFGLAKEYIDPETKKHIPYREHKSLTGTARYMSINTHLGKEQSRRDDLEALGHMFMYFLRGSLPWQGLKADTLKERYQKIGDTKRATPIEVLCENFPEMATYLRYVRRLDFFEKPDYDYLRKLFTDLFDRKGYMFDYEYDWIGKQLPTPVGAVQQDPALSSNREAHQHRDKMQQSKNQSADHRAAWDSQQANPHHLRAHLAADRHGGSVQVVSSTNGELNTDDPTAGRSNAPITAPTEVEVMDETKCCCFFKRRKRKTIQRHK

[17] = target: CK1a1 (Homo sapiens (Human), UniProt P48729); test: Kinome-wide profiling; type: biochemical; conditions: read-out: % Residual Activity (mean)
[18] = target: STK33 (Homo sapiens (Human), UniProt Q9BYT3); test: Kinome-wide profiling; type: biochemical; conditions: read-out: % Residual Activity (mean)
Sequence of STK33 (Q9BYT3 whole entry): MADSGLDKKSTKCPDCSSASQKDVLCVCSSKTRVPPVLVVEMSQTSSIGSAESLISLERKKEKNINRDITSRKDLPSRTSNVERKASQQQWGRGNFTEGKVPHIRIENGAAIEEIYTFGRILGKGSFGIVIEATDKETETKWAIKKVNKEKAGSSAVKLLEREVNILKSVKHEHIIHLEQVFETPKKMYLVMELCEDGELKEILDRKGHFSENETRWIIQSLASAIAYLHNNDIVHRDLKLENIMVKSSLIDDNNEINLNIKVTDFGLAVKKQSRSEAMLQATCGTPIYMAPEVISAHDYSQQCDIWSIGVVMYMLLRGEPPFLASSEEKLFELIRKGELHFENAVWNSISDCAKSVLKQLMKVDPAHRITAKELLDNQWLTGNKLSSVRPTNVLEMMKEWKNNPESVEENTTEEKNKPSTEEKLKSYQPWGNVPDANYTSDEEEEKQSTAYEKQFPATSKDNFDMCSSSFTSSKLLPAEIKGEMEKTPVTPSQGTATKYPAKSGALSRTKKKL

[19] = target: LOK/STK10 (Homo sapiens (Human), UniProt O94804); test: Kinome-wide profiling; type: biochemical; conditions: read-out: % Residual Activity (mean)
[20] = target: FRK/PTK5 (Homo sapiens (Human), UniProt P42685); test: Kinome-wide profiling; type: biochemical; conditions: read-out: % Residual Activity (mean)
[21] = target: JNK3 (Homo sapiens (Human), UniProt P53779); test: Kinome-wide profiling; type: biochemical; conditions: read-out: % Residual Activity (mean)
[22] = target: RSK3 (Homo sapiens (Human), UniProt Q15349); test: Kinome-wide profiling; type: biochemical; conditions: read-out: % Residual Activity (mean)
Sequence of RSK3 (Q15349 whole entry): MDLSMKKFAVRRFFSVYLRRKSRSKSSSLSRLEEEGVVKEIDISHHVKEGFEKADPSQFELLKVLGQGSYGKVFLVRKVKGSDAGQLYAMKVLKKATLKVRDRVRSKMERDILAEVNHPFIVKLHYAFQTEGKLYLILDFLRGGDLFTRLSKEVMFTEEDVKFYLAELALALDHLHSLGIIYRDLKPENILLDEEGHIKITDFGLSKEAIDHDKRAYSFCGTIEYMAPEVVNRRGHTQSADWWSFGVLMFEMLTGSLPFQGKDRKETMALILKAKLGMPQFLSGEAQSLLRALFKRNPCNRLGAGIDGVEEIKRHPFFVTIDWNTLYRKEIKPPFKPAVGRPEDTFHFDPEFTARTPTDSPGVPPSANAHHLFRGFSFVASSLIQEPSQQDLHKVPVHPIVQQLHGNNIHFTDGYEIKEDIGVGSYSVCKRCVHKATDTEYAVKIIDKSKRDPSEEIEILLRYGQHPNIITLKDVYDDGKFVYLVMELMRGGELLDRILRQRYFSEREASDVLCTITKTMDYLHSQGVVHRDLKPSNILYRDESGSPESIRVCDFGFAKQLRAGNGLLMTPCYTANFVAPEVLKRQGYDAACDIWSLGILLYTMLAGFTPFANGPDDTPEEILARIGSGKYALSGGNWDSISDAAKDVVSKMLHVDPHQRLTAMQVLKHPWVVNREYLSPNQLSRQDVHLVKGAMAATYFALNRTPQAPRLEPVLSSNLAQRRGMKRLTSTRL

[23] = target: DYRK3 (Homo sapiens (Human), UniProt O43781); test: Kinome-wide profiling; type: biochemical; conditions: read-out: % Residual Activity (mean)
[24] = target: TNIK (Homo sapiens (Human), UniProt Q9UKE5); test: Kinome-wide profiling; type: biochemical; conditions: read-out: % Residual Activity (mean)
[25] = target: PRKX (Homo sapiens (Human), UniProt P51817); test: Kinome-wide profiling; type: biochemical; conditions: read-out: % Residual Activity (mean)
[26] = target: CHK1 (Homo sapiens (Human), UniProt O14757); test: Kinome-wide profiling; type: biochemical; conditions: read-out: % Residual Activity (mean)
[27] = target: HIPK2 (Homo sapiens (Human), UniProt Q9H2X6); test: Kinome-wide profiling; type: biochemical; conditions: read-out: % Residual Activity (mean)
[28] = target: PKN3/PRK3 (Homo sapiens (Human), UniProt Q6P5Z2); test: Kinome-wide profiling; type: biochemical; conditions: read-out: % Residual Activity (mean)
[29] = target: CTK/MATK (Homo sapiens (Human), UniProt P42679); test: Kinome-wide profiling; type: biochemical; conditions: read-out: % Residual Activity (mean)
[30] = target: KDR/VEGFR2 (Homo sapiens (Human), UniProt P35968); test: Kinome-wide profiling; type: biochemical; conditions: read-out: % Residual Activity (mean)
Sequence of KDR/VEGFR2 (P35968 20-1356): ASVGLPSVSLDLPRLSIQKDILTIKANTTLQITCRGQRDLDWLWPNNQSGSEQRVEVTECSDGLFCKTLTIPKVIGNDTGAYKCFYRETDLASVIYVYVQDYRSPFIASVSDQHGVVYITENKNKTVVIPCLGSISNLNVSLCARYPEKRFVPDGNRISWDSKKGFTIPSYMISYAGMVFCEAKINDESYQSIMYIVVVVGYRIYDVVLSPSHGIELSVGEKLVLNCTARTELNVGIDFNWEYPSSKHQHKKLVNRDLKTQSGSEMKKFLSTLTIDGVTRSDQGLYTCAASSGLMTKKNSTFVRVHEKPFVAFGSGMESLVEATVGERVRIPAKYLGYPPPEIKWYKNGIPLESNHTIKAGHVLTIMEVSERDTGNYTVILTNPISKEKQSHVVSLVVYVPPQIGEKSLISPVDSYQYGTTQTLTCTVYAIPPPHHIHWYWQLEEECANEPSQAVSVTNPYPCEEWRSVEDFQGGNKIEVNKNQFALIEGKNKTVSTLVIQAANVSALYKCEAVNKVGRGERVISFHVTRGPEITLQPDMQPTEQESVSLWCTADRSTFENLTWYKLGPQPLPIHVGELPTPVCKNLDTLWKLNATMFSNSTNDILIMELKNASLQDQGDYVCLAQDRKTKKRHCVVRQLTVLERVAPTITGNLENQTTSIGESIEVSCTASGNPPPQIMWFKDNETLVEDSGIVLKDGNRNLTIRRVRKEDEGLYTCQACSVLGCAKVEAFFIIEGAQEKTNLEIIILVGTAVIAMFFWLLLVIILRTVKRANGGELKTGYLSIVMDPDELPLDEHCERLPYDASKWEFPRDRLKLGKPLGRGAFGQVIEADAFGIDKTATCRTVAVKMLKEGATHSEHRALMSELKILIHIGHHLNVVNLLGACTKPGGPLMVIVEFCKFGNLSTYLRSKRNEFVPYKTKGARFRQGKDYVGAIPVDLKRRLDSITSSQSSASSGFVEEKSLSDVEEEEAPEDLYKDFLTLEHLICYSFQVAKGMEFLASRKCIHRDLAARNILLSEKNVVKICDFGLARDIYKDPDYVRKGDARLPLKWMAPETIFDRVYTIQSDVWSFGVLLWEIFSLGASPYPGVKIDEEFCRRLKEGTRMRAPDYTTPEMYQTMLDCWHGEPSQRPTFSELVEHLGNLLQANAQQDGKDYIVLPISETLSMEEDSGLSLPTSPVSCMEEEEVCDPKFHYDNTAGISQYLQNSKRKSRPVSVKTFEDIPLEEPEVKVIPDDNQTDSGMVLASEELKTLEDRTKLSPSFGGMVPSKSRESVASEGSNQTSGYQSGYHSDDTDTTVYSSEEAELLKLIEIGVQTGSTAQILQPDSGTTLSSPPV

[31] = target: MEKK2 (Homo sapiens (Human), UniProt Q9Y2U5); test: Kinome-wide profiling; type: biochemical; conditions: read-out: % Residual Activity (mean)
Sequence of MEKK2 (Q9Y2U5 whole entry): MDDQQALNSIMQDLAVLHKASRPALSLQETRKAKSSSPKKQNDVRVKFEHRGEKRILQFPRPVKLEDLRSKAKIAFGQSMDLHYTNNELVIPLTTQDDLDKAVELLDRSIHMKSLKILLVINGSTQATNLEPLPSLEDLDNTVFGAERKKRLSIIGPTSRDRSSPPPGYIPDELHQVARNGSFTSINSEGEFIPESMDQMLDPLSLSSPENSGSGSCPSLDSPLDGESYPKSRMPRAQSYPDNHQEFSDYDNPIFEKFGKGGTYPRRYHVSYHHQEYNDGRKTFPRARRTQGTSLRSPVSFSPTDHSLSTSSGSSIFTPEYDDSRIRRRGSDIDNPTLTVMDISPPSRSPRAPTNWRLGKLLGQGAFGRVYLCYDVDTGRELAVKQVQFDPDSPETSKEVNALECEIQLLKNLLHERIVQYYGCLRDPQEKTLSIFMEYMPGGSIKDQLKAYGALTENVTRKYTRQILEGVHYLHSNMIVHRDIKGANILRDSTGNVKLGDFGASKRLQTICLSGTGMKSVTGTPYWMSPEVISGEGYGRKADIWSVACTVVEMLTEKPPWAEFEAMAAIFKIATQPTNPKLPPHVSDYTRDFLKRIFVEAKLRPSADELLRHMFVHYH

[32] = target: NEK9 (Homo sapiens (Human), UniProt Q8TD19); test: Kinome-wide profiling; type: biochemical; conditions: read-out: % Residual Activity (mean)
[33] = target: WEE1 (Homo sapiens (Human), UniProt P30291); test: Kinome-wide profiling; type: biochemical; conditions: read-out: % Residual Activity (mean)
[34] = target: DMPK2 (Homo sapiens (Human), UniProt Q6DT37); test: Kinome-wide profiling; type: biochemical; conditions: read-out: % Residual Activity (mean)

CCn1cnc2c(NCc3ccc(-c4ccccn4)nc3)nc(-c3ccc(N)nc3)nc21 [Example 53, N-([2,2′-bipyridin]-5-ylmethyl)-2-(6-aminopyridin-3-yl)-9-ethyl-9H-purin-6-amine]
GI50 [1]: 36 nM
GI50 [2]: 38 nM
activity at 10 µM [3]: 74.7%
remaining activity at 10 µM [4]: 0.54%
remaining activity at 10 µM [5]: 1.19%
remaining activity at 10 µM [6]: 1.6%
remaining activity at 10 µM [7]: 2.46%
remaining activity at 10 µM [8]: 2.52%
remaining activity at 10 µM [9]: 3.85%
remaining activity at 10 µM [10]: 7.39%
remaining activity at 10 µM [11]: 7.49%
remaining activity at 10 µM [12]: 7.55%
remaining activity at 10 µM [13]: 13.7%
remaining activity at 10 µM [14]: 13.7%
remaining activity at 10 µM [15]: 14.2%
remaining activity at 10 µM [16]: 24.4%
remaining activity at 10 µM [17]: 26.5%
remaining activity at 10 µM [18]: 33.5%
remaining activity at 10 µM [19]: 41.4%
remaining activity at 10 µM [20]: 43.5%
remaining activity at 10 µM [21]: 48.7%
remaining activity at 10 µM [22]: 58%
remaining activity at 10 µM [23]: 58.6%
remaining activity at 10 µM [24]: 69%
remaining activity at 10 µM [25]: 79.2%
remaining activity at 10 µM [26]: 79.5%
remaining activity at 10 µM [27]: 81.3%
remaining activity at 10 µM [28]: 81.5%
remaining activity at 10 µM [29]: 87.6%
remaining activity at 10 µM [30]: 88.6%
remaining activity at 10 µM [31]: 90%
remaining activity at 10 µM [32]: 90%
remaining activity at 10 µM [33]: 90.2%
remaining activity at 10 µM [34]: 92.4%
